Assay results published in patent publication US12077503B2, “Substituted cyclic amides and their use as herbicides” (FMC CORPORATION, priority 2015, dated 2024).

Key:
Assay in all cases: Test D preemergence
Format in all cases: in vivo
Conditions in all cases: scale 0 to 100
Kochia (Kochia scoparia) = system: Kochia (Kochia scoparia)
Source text: (§1) Seeds of plant species selected from bluegrass (annual bluegrass, Poa annua), blackgrass (Alopecurus myosuroides), canarygrass (littleseed canarygrass, Phalaris minor), chickweed (common chickweed, Stellaria media), Galium (catchweed bedstraw, Galium aparine), bromegrass, downy (downy bromegrass, Bromus tectorum), field poppy (Papaver rhoeas), field violet (Viola arvensis), foxtail, green (green foxtail, Setaria viridis), deadnettle (henbit deadnettle, Lamium amplexicaule), ryegrass, Italian (Italian ryegrass, Lolium multiflorum), Kochia (Kochia scoparia), lambsquarters (Chenopodium album), oilseed rape (Brassica napus), pigweed (Amaranthus retroflexus), chamomile (scentless chamomile, Matricaria inodora), Russian thistle (Salsola kali), speedwell (bird's-eye speedwell, Veronica persica), barley, spring (spring barley, Hordeum vulgare), wheat, spring (spring wheat, Triticum aestivum), buckwheat, wild (wild buckwheat, Polygonum convolvulus), mustard, wild (wild mustard, Sinapis arvensis), oat, wild (wild oat, Avena fatua), radish, wild (wild radish, Raphanus raphanistrum), windgrass (Apera spica-venti), barley, winter (winter barley Hordeum vulgare), and wheat, winter (winter wheat, Triticum aestivum) were planted into a silt loam soil and treated preemergence with test chemicals formulated in a non-phytotoxic solvent mixture which included a surfactant.
(§2) Treated plants and controls were maintained in a controlled growth environment approximately 21 d after which time all species were compared to controls and visually evaluated. Plant response ratings, summarized in Table D, are based on a scale of 0 to 100 where 0 is no effect and 100 is complete control. A dash (-) response means no test result.

[1] = system: Russian thistle (Salsola kali)
Source text: as §1, §2

[2] = system: barley, spring (spring barley, Hordeum vulgare)
Source text: as §1, §2

[3] = system: blackgrass (Alopecurus myosuroides)
Source text: as §1, §2

[4] = system: bluegrass (annual bluegrass, Poa annua)
Source text: as §1, §2

[5] = system: bromegrass, downy (downy bromegrass, Bromus tectorum)
Source text: as §1, §2

[6] = system: buckwheat, wild (wild buckwheat, Polygonum convolvulus)
Source text: as §1, §2

[7] = system: chamomile (scentless chamomile, Matricaria inodora)
Source text: as §1, §2

[8] = system: chickweed (common chickweed, Stellaria media)
Source text: as §1, §2

[9] = system: deadnettle (henbit deadnettle, Lamium amplexicaule)
Source text: as §1, §2

[10] = system: field poppy (Papaver rhoeas)
Source text: as §1, §2

[11] = system: field violet (Viola arvensis)
Source text: as §1, §2

[12] = system: oilseed rape (Brassica napus)
Source text: as §1, §2

[13] = system: radish, wild (wild radish, Raphanus raphanistrum)
Source text: as §1, §2

[14] = system: ryegrass, Italian (Italian ryegrass, Lolium multiflorum)
Source text: as §1, §2

[15] = system: wheat, spring (spring wheat, Triticum aestivum)
Source text: as §1, §2

[16] = system: windgrass (Apera spica-venti)
Source text: as §1, §2

## CN1CC(c2ccc(C(F)(F)F)cc2)C(C(=O)Nc2ccccc2S(C)(=O)=O)C1=O (stereo not shown) [Compound 624]
Kochia (Kochia scoparia); 31 g ai/ha
  Plant response rating: Kochia: 0
Kochia (Kochia scoparia); 62 g ai/ha
  Plant response rating: Kochia: 5
Kochia (Kochia scoparia); 125 g ai/ha
  Plant response rating: Kochia: 15
Kochia (Kochia scoparia); 250 g ai/ha
  Plant response rating: Kochia: 85
[1]; 31 g ai/ha
  Plant response rating: Russian Thistle: 0
[1]; 62 g ai/ha
  Plant response rating: Russian Thistle: 30
[1]; 125 g ai/ha
  Plant response rating: Russian Thistle: 10
[1]; 250 g ai/ha
  Plant response rating: Russian Thistle: 50
[2]; 31 g ai/ha
  Plant response rating: Barley, Spring: 0
[2]; 62 g ai/ha
  Plant response rating: Barley, Spring: 0
[2]; 125 g ai/ha
  Plant response rating: Barley, Spring: 5
[2]; 250 g ai/ha
  Plant response rating: Barley, Spring: 40
[3]; 31 g ai/ha
  Plant response rating: Blackgrass: 5
[3]; 62 g ai/ha
  Plant response rating: Blackgrass: 5
[3]; 125 g ai/ha
  Plant response rating: Blackgrass: 15
[3]; 250 g ai/ha
  Plant response rating: Blackgrass: 85
[4]; 31 g ai/ha
  Plant response rating: Bluegrass: 10
[4]; 62 g ai/ha
  Plant response rating: Bluegrass: 25
[4]; 125 g ai/ha
  Plant response rating: Bluegrass: 55
[4]; 250 g ai/ha
  Plant response rating: Bluegrass: 65
[5]; 31 g ai/ha
  Plant response rating: Bromegrass, Downy: 0
[5]; 62 g ai/ha
  Plant response rating: Bromegrass, Downy: 10
[5]; 125 g ai/ha
  Plant response rating: Bromegrass, Downy: 20
[5]; 250 g ai/ha
  Plant response rating: Bromegrass, Downy: 20
[6]; 31 g ai/ha
  Plant response rating: Buckwheat, Wild: 0
[6]; 62 g ai/ha
  Plant response rating: Buckwheat, Wild: 0
[6]; 125 g ai/ha
  Plant response rating: Buckwheat, Wild: 15
[6]; 250 g ai/ha
  Plant response rating: Buckwheat, Wild: 50
[7]; 31 g ai/ha
  Plant response rating: Chamomile: 0
[7]; 62 g ai/ha
  Plant response rating: Chamomile: 95
[7]; 125 g ai/ha
  Plant response rating: Chamomile: 90
[7]; 250 g ai/ha
  Plant response rating: Chamomile: 100
[8]; 31 g ai/ha
  Plant response rating: Chickweed: 15
[8]; 125 g ai/ha
  Plant response rating: Chickweed: 60
[8]; 250 g ai/ha
  Plant response rating: Chickweed: 85
[9]; 31 g ai/ha
  Plant response rating: Deadnettle: 0
[9]; 62 g ai/ha
  Plant response rating: Deadnettle: 0
[9]; 125 g ai/ha
  Plant response rating: Deadnettle: 25
[9]; 250 g ai/ha
  Plant response rating: Deadnettle: 70
[10]; 31 g ai/ha
  Plant response rating: Field Poppy: 15
[10]; 62 g ai/ha
  Plant response rating: Field Poppy: 25
[10]; 125 g ai/ha
  Plant response rating: Field Poppy: 100
[10]; 250 g ai/ha
  Plant response rating: Field Poppy: 100
[11]; 31 g ai/ha
  Plant response rating: Field Violet: 10
[11]; 62 g ai/ha
  Plant response rating: Field Violet: 10
[11]; 125 g ai/ha
  Plant response rating: Field Violet: 10
[11]; 250 g ai/ha
  Plant response rating: Field Violet: 10
[12]; 31 g ai/ha
  Plant response rating: Oilseed Rape: 0
[12]; 62 g ai/ha
  Plant response rating: Oilseed Rape: 25
[12]; 125 g ai/ha
  Plant response rating: Oilseed Rape: 35
[12]; 250 g ai/ha
  Plant response rating: Oilseed Rape: 65
[13]; 31 g ai/ha
  Plant response rating: Radish, Wild: 0
[13]; 125 g ai/ha
  Plant response rating: Radish, Wild: 0
[13]; 250 g ai/ha
  Plant response rating: Radish, Wild: 75
[14]; 31 g ai/ha
  Plant response rating: Ryegrass, Italian: 0
[14]; 62 g ai/ha
  Plant response rating: Ryegrass, Italian: 0
[14]; 125 g ai/ha
  Plant response rating: Ryegrass, Italian: 25
[14]; 250 g ai/ha
  Plant response rating: Ryegrass, Italian: 25
[15]; 31 g ai/ha
  Plant response rating: Wheat, Spring: 5
[15]; 62 g ai/ha
  Plant response rating: Wheat, Spring: 10
[15]; 125 g ai/ha
  Plant response rating: Wheat, Spring: 15
[15]; 250 g ai/ha
  Plant response rating: Wheat, Spring: 40
[16]; 31 g ai/ha
  Plant response rating: Windgrass: 15
[16]; 62 g ai/ha
  Plant response rating: Windgrass: 25
[16]; 125 g ai/ha
  Plant response rating: Windgrass: 85
[16]; 250 g ai/ha
  Plant response rating: Windgrass: 95

## CN1CC(c2cccc(C(F)(F)F)c2)C(C(=O)Nc2cccc(F)c2F)C1=O (stereo not shown) [Compound 636]
Kochia (Kochia scoparia); 31 g ai/ha
  Plant response rating: Kochia: 5
Kochia (Kochia scoparia); 62 g ai/ha
  Plant response rating: Kochia: 25
Kochia (Kochia scoparia); 125 g ai/ha
  Plant response rating: Kochia: 75
Kochia (Kochia scoparia); 250 g ai/ha
  Plant response rating: Kochia: 75
[1]; 31 g ai/ha
  Plant response rating: Russian Thistle: 0
[1]; 62 g ai/ha
  Plant response rating: Russian Thistle: 40
[1]; 125 g ai/ha
  Plant response rating: Russian Thistle: 50
[1]; 250 g ai/ha
  Plant response rating: Russian Thistle: 60
[2]; 31 g ai/ha
  Plant response rating: Barley, Spring: 35
[2]; 62 g ai/ha
  Plant response rating: Barley, Spring: 55
[2]; 125 g ai/ha
  Plant response rating: Barley, Spring: 60
[2]; 250 g ai/ha
  Plant response rating: Barley, Spring: 75
[3]; 31 g ai/ha
  Plant response rating: Blackgrass: 25
[3]; 62 g ai/ha
  Plant response rating: Blackgrass: 30
[3]; 125 g ai/ha
  Plant response rating: Blackgrass: 60
[3]; 250 g ai/ha
  Plant response rating: Blackgrass: 75
[4]; 31 g ai/ha
  Plant response rating: Bluegrass: 35
[4]; 62 g ai/ha
  Plant response rating: Bluegrass: 95
[4]; 125 g ai/ha
  Plant response rating: Bluegrass: 90
[4]; 250 g ai/ha
  Plant response rating: Bluegrass: 100
[5]; 31 g ai/ha
  Plant response rating: Bromegrass, Downy: 10
[5]; 62 g ai/ha
  Plant response rating: Bromegrass, Downy: 20
[5]; 125 g ai/ha
  Plant response rating: Bromegrass, Downy: 55
[5]; 250 g ai/ha
  Plant response rating: Bromegrass, Downy: 80
[6]; 31 g ai/ha
  Plant response rating: Buckwheat, Wild: 5
[6]; 62 g ai/ha
  Plant response rating: Buckwheat, Wild: 75
[6]; 125 g ai/ha
  Plant response rating: Buckwheat, Wild: 90
[6]; 250 g ai/ha
  Plant response rating: Buckwheat, Wild: 80
[7]; 31 g ai/ha
  Plant response rating: Chamomile: 90
[7]; 62 g ai/ha
  Plant response rating: Chamomile: 100
[7]; 125 g ai/ha
  Plant response rating: Chamomile: 100
[7]; 250 g ai/ha
  Plant response rating: Chamomile: 100
[8]; 31 g ai/ha
  Plant response rating: Chickweed: 85
[8]; 62 g ai/ha
  Plant response rating: Chickweed: 85
[8]; 125 g ai/ha
  Plant response rating: Chickweed: 90
[8]; 250 g ai/ha
  Plant response rating: Chickweed: 90
[9]; 31 g ai/ha
  Plant response rating: Deadnettle: 0
[9]; 62 g ai/ha
  Plant response rating: Deadnettle: 35
[9]; 125 g ai/ha
  Plant response rating: Deadnettle: 70
[9]; 250 g ai/ha
  Plant response rating: Deadnettle: 75
[10]; 31 g ai/ha
  Plant response rating: Field Poppy: 90
[10]; 62 g ai/ha
  Plant response rating: Field Poppy: 95
[10]; 125 g ai/ha
  Plant response rating: Field Poppy: 100
[10]; 250 g ai/ha
  Plant response rating: Field Poppy: 100
[11]; 31 g ai/ha
  Plant response rating: Field Violet: 0
[11]; 62 g ai/ha
  Plant response rating: Field Violet: 0
[11]; 125 g ai/ha
  Plant response rating: Field Violet: 35
[11]; 250 g ai/ha
  Plant response rating: Field Violet: 85
[12]; 31 g ai/ha
  Plant response rating: Oilseed Rape: 10
[12]; 62 g ai/ha
  Plant response rating: Oilseed Rape: 30
[12]; 125 g ai/ha
  Plant response rating: Oilseed Rape: 60
[12]; 250 g ai/ha
  Plant response rating: Oilseed Rape: 65
[13]; 62 g ai/ha
  Plant response rating: Radish, Wild: 25
[13]; 125 g ai/ha
  Plant response rating: Radish, Wild: 65
[13]; 250 g ai/ha
  Plant response rating: Radish, Wild: 100
[14]; 31 g ai/ha
  Plant response rating: Ryegrass, Italian: 15
[14]; 62 g ai/ha
  Plant response rating: Ryegrass, Italian: 40
[14]; 125 g ai/ha
  Plant response rating: Ryegrass, Italian: 65
[14]; 250 g ai/ha
  Plant response rating: Ryegrass, Italian: 80
[15]; 31 g ai/ha
  Plant response rating: Wheat, Spring: 20
[15]; 62 g ai/ha
  Plant response rating: Wheat, Spring: 40
[15]; 125 g ai/ha
  Plant response rating: Wheat, Spring: 45
[15]; 250 g ai/ha
  Plant response rating: Wheat, Spring: 80
[16]; 31 g ai/ha
  Plant response rating: Windgrass: 85
[16]; 62 g ai/ha
  Plant response rating: Windgrass: 95
[16]; 125 g ai/ha
  Plant response rating: Windgrass: 95
[16]; 250 g ai/ha
  Plant response rating: Windgrass: 98
